Converted amounts (≈) assume the structure as drawn.
Tests used:
Assay type in all cases: cell-based
Candida albicans = assay: Microbicidal action in suspension test; conditions: inoculum 1,9 x 10^8 /ml diluted 1:100, room temperature, in H2O
Protocol: (§1) 55,0 g (0,26 Mol) des Imidazolins Nr. 6 der Tabelle 1 wurden in 30 ml Isopropanol gelöst und mit 32,6 g (0,26 Mol) Benzylchlorid in 3 Stunden bei 80'- 85 °C quaterniert. Danach wurde das Isopropanol abdestilliert und das Produkt mit Wasser auf 30 % Aktivsubstanz eingestellt. Die Ergebnisse der Prüfung der mikrobiziden Wirkung einiger Imidazoliniumsalze der Tabelle 2 finden sich in der nachfolgenden Tabelle 3: […]

Escherichia coli = assay: Microbicidal action in suspension test; conditions: inoculum 3,7 x 10^8 /ml diluted 1:100, room temperature, in H2O
Protocol: as §1

Pseudomonas aeruginosa = assay: Microbicidal action in suspension test; conditions: inoculum 1,6 x 10^8 /ml diluted 1:100, room temperature, in H2O
Protocol: as §1

Staphylococcus aureus = assay: Microbicidal action in suspension test; conditions: inoculum 3,0 x 10^8 /ml diluted 1:100, room temperature, in H2O
Protocol: as §1

[1] = system: Candida albicans ATCC 10 231; assay: Inhibition series in liquid nutrient medium, tube test CII1 (DGHM guidelines); conditions: ATCC10, read-out: antimikrobielle Wirkung (Hemmreihen)
Source text: (§2) Die antimikrobielle Wirkung der vorstehenden Imidazolin-Acetate geht aus folgender Tabelle hervor:
(§3) Die Prüfung erfolgte in Hemmreihen in flüssigem Nährsubstrat gegenüber den genannten Keimen im Röhrchentest CII1 gemäß Richtlinien der DGHM für chemische Desinfektionsmittel.

[2] = system: Staphylococcus aureus SG 511; assay: as above; conditions: SG511, read-out: antimikrobielle Wirkung (Hemmreihen)
Source text: as §2, §3

Row | Compound | Abtötungszeit in Minuten (Candida albicans; 10 ppm active) | Abtötungszeit in Minuten (Candida albicans; 50 ppm active) | Abtötungszeit in Minuten (Escherichia coli; 10 ppm active) | Abtötungszeit in Minuten (Escherichia coli; 50 ppm active) | Abtötungszeit in Minuten (Pseudomonas aeruginosa; 10 ppm active) | Abtötungszeit in Minuten (Pseudomonas aeruginosa; 50 ppm active) | Abtötungszeit in Minuten (Staphylococcus aureus; 10 ppm active) | Abtötungszeit in Minuten (Staphylococcus aureus; 50 ppm active) | Abtötungszeit in Minuten (Candida albicans; 100 ppm active) | Abtötungszeit in Minuten (Escherichia coli; 100 ppm active) | Abtötungszeit in Minuten (Pseudomonas aeruginosa; 100 ppm active) | Abtötungszeit in Minuten (Staphylococcus aureus; 100 ppm active) | MIC [1] | MIC [2]
1 | CCCCCCCCCCC(O)CN1CC[N+](C)=C1CCCCCCCCC (stereo not shown) [Imidazoliniumsalz 4] | 20 Minuten | 20 Minuten | 60 Minuten | 10 Minuten | 10 Minuten | 10 Minuten | 5 Minuten | 5 Minuten | – | – | – | – | – | –
2 | CCCCCCCCCC1=[N+](C)CCN1CC(O)CCCCCCCC (stereo not shown) [Imidazoliniumsalz 1] | – | 40 Minuten | x (x = > 120 Minuten) | 20 Minuten | – | 20 Minuten | 60 Minuten | ≤ 2,5 Minuten | 10 Minuten | ≤ 2,5 Minuten | 10 Minuten | ≤ 2,5 Minuten | – | –
3 | CCCCCCCCCCC(O)CN1CCN=C1CCCCCCCCC (stereo not shown) [Imidazolin-Nr.4-acetat] | – | – | – | – | – | – | – | – | – | – | – | – | 50 µg/mL (≈ 131 µM) | < 10 µg/mL
4 | CCCCCCCCCCC(O)CN1CC[N+](C)=C1CCCCCCC (stereo not shown) [Imidazoliniumsalz 3] | 20 Minuten | 5 Minuten | 5 Minuten | ≤ 2,5 Minuten | 60 Minuten | 10 Minuten | ≤ 2,5 Minuten | ≤ 2,5 Minuten | – | – | – | – | – | –
